From paper PMC9919513, “A Practical Approach to Bicyclic Carbamoyl Pyridones with Application to the Synthesis of HIV-1 Integrase Strand Transfer Inhibitors” (Molecules, 2023)
Like-named read-outs stand apart in the source and are kept apart here.

How the values were obtained:
[1] = tested on: HIV-1 vectors that carry WT IN; experiment: Single-round HIV-1 replication antiviral assay, wild-type IN; format: cell-based; settings: for Ratio of the antiviral potencies after and before hydrogenation (WT): EC50 of saturated 7 over EC50 of unsaturated 6, WT IN; for EC50: 48 h
Method: The bicyclic metal chelating carbamoyl pyridone moiety is common to second-generation tricyclic INSTIs (3, 4, and 5, Figure 1). Analogs of the current study are simplified analogs that lack a third ring. […] The halogen substitution pattern of the benzylamide moiety can affect inhibitory potencies of INSTIs. We determined the antiviral potencies of our compounds in single round HIV-1 replication assays using viral constructs with wild-type IN [31]. Cytotoxicities were determined as previously described. […] In general, the potencies of bicyclic analogs 6 having an unsaturated bond at the C4 position were insensitive to differences in N-methyl substituents. […] Analogs 6g and 6h represent simplified analogs of DTG (3) and CAB (5), respectively, in which the third ring (C-ring) is opened and having doble bond in B-ring, but lacking α-methyl stereochemistry.
Human embryonic kidney cell culture cell line 293 was acquired from the American Type Culture Collection (ATCC). The human osteosarcoma cell line, HOS, was obtained from Dr. Richard Schwartz (Michigan State University, East Lansing, MI, USA) and grown in Dulbecco’s modified Eagle’s medium (Invitrogen, Carlsbad, CA, USA) supplemented with 5% (v/v) fetal bovine serum, 5% newborn calf serum, and penicillin (50 units/mL) plus streptomycin (50 µg/mL; Quality Biological, Gaithersburg, MD, USA). The transfection vector, pNLNgoMIVR-ΔLUC was made from pNLNgoMIVR-ΔEnv.HSA by removing the HSA reporter gene and replacing it with a luciferase reporter gene between the NotI and XhoI restriction sites. To produce the new IN mutant S230N used in this study, the IN open reading frame was removed from pNLNgoMIVR-ΔENV.LUC by digestion with KpnI and SalI, and the resulting fragment was inserted between the KpnI and SalI sites of pBluescript KS+. Using that construct as the wild-type template, we prepared the following HIV-1 IN mutant S230N using the QuikChange II XL site-directed mutagenesis kit (Agilent Technologies, Santa Clara, CA, USA) protocol. The following sense oligonucleotides were used with matching cognate antisense oligonucleotides (not shown) (Integrated DNA Technologies, Coralville, IA, USA) in the mutagenesis: S230N 5′-[…]-3′. The DNA sequence of the IN mutant S230N construct was verified independently by DNA sequence determination. The mutated IN coding sequences from pBluescript KS+ were then subcloned into pNLNgoMIVR-ΔEnv.LUC (between the KpnI and SalI sites) to produce mutant HIV-1 constructs, which were also checked by DNA sequencing. […]. On the day prior to transfection, 293 cells were plated on 100 mm diameter dishes at a density of 1.5 × 10^6 cells per plate. Next, 293 cells were transfected with 16 µg of pNLNgoMIVR^-ΔLUC and 4 µg of pHCMV-g (obtained from Dr. Jane Burns, University of California, San Diego) using the calcium phosphate method. At approximately 6 h after the calcium phosphate precipitate was added, 293 cells were washed twice with phosphate-buffered saline (PBS) and incubated with fresh media for 48 h. The virus-containing supernatants were then harvested, clarified by low-speed centrifugation, filtrated, and diluted for preparation in antiviral infection assays. On the day prior to the screen, HOS cells were seeded in a 96-well luminescence cell culture plate at a density of 4000 cells in 100 µL per well. On the day of the screen for cellular cytotoxicity determination, cells were treated with compounds from a concentration range of 250 µM to 0.05 µM and then incubated at 37 °C for 48 h. On the day of the screen for antiviral activity infection assays, cells were treated with compounds from a concentration range of 5 µM to 0.0001 µM using 11 serial dilutions and then incubated at 37 °C for 3 h. After compound incorporation and activation in the cell, 100 µL of virus-stock (WT or mutant) diluted to achieve a luciferase signal between 0.2 and 1.5 Relative Luciferase Units (RLUs) was added to each well and further incubated at 37 °C for 48 h. […]

[2] = in vitro; format: cell-based; settings: human, HOS cells
Method: Human embryonic kidney cell culture cell line 293 was acquired from the American Type Culture Collection (ATCC). The human osteosarcoma cell line, HOS, was obtained from Dr. Richard Schwartz (Michigan State University, East Lansing, MI, USA) and grown in Dulbecco’s modified Eagle’s medium (Invitrogen, Carlsbad, CA, USA) supplemented with 5% (v/v) fetal bovine serum, 5% newborn calf serum, and penicillin (50 units/mL) plus streptomycin (50 µg/mL; Quality Biological, Gaithersburg, MD, USA). The transfection vector, pNLNgoMIVR-ΔLUC was made from pNLNgoMIVR-ΔEnv.HSA by removing the HSA reporter gene and replacing it with a luciferase reporter gene between the NotI and XhoI restriction sites. To produce the new IN mutant S230N used in this study, the IN open reading frame was removed from pNLNgoMIVR-ΔENV.LUC by digestion with KpnI and SalI, and the resulting fragment was inserted between the KpnI and SalI sites of pBluescript KS+. Using that construct as the wild-type template, we prepared the following HIV-1 IN mutant S230N using the QuikChange II XL site-directed mutagenesis kit (Agilent Technologies, Santa Clara, CA, USA) protocol. The following sense oligonucleotides were used with matching cognate antisense oligonucleotides (not shown) (Integrated DNA Technologies, Coralville, IA, USA) in the mutagenesis: S230N 5′-[…]-3′. The DNA sequence of the IN mutant S230N construct was verified independently by DNA sequence determination. The mutated IN coding sequences from pBluescript KS+ were then subcloned into pNLNgoMIVR-ΔEnv.LUC (between the KpnI and SalI sites) to produce mutant HIV-1 constructs, which were also checked by DNA sequencing. […]. On the day prior to transfection, 293 cells were plated on 100 mm diameter dishes at a density of 1.5 × 10^6 cells per plate. Next, 293 cells were transfected with 16 µg of pNLNgoMIVR^-ΔLUC and 4 µg of pHCMV-g (obtained from Dr. Jane Burns, University of California, San Diego) using the calcium phosphate method. At approximately 6 h after the calcium phosphate precipitate was added, 293 cells were washed twice with phosphate-buffered saline (PBS) and incubated with fresh media for 48 h. The virus-containing supernatants were then harvested, clarified by low-speed centrifugation, filtrated, and diluted for preparation in antiviral infection assays. On the day prior to the screen, HOS cells were seeded in a 96-well luminescence cell culture plate at a density of 4000 cells in 100 µL per well. On the day of the screen for cellular cytotoxicity determination, cells were treated with compounds from a concentration range of 250 µM to 0.05 µM and then incubated at 37 °C for 48 h. On the day of the screen for antiviral activity infection assays, cells were treated with compounds from a concentration range of 5 µM to 0.0001 µM using 11 serial dilutions and then incubated at 37 °C for 3 h. After compound incorporation and activation in the cell, 100 µL of virus-stock (WT or mutant) diluted to achieve a luciferase signal between 0.2 and 1.5 Relative Luciferase Units (RLUs) was added to each well and further incubated at 37 °C for 48 h. Cellular cytotoxicity was measured by using the ATP Lite Luminescence detection system and monitored by adding 50 µL of cell lysis buffer from the Luminescence ATP detection assay to each well followed by mixing at 700 rpm at room temperature for 5 min using a compact thermomixer. After addition of 50 µL of reconstituted Luminescence ATP detection assay reagent to all wells except for the negative control/background wells, the plates were mixed at 700 rpm at room temperature for 5 min using a compact thermomixer, incubated at room temperature for 20 min to allow time for signal development, and finally, cytotoxicity was determined using the microplate reader. Infectivity was measured by using the Steady-lite plus luminescence reporter gene assay system (PerkinElmer, Waltham, MA, USA). […]

[3] = Human immunodeficiency virus 1, HOS, read-out: EC50, antiviral potency, WT IN, VSV-g-pseudotyped HIV-1 luciferase vector with WT IN, HOS cells, 48 h
[4] = 48 h, read-out: CC50, cytotoxic concentration resulting in 50% reduction in the level of ATP

Row | Compound | melting point [°C] | Ratio of the antiviral potencies after and before hydrogenation (WT) [1] | EC50 [1, 3] [nM] | CC50 [2, 4] [nM] | CC50 ([2]; running text of b13, read-out: CC50, cytotoxicity) [nM] | EC50 ([1]; read-out: EC50, antiviral potency, WT IN, VSV-g-pseudotyped HIV-1 luciferase vector with WT IN, HOS cells) [nM]
1 | COCCN1CCn2cc(C(=O)NCc3ccc(F)cc3F)c(=O)c(O)c2C1=O [Compound 7h, N-(2,4-Difluorobenzyl)-9-hydroxy-2-(2-methoxyethyl)-1,8-dioxo-1,3,4,8-tetrahydro-2H-pyrido [1,2-a]pyrazine-7-carboxamide] | 207 to 210 | 2.1 | 3.9 ± 0.5 | – | – | –
2 | CC(C)CC(C)n1ccn2cc(C(=O)NCc3ccc(F)cc3F)c(=O)c(O)c2c1=O (stereo not drawn) [Compound 6i, N-(2,4-Difluorobenzyl)-9-hydroxy-2-(4-methylpentan-2-yl)-1,8-dioxo-1,8-dihydro-2H-pyrido [1,2-a]pyrazine-7-carboxamide] | 199 to 203 | – | 4.2 ± 1 | > 250000 | – | –
3 | CC(C)CC(C)N1CCn2cc(C(=O)NCc3ccc(F)cc3F)c(=O)c(O)c2C1=O (stereo not drawn) [Compound 7i, N-(2,4-Difluorobenzyl)-9-hydroxy-2-(4-methylpentan-2-yl)-1,8-dioxo-1,3,4,8-tetrahydro-2H-pyrido [1,2-a]pyrazine-7-carboxamide] | 190 to 192 | 1.4 | 6 ± 1.2 | > 250000 | – | –
4 | Cn1ccn2cc(C(=O)NCc3ccc(F)cc3F)c(=O)c(O)c2c1=O [Compound 6a, N-(2,4-Difluorobenzyl)-9-hydroxy-2-methyl-1,8-dioxo-1,8-dihydro-2H-pyrido [1,2-a]pyrazine-7-carboxamide] | 275 to 280 | – | 2.7 ± 0.2 | – | – | –
5 | C[C@H]1CO[C@@H]2Cn3cc(C(=O)NCc4ccc(F)cc4F)c(=O)c(O)c3C(=O)N12 [CAB, Cabotegravir, reference compound] | – | – | ~2 | – | – | –
6 | COCCCn1ccn2cc(C(=O)NCc3ccc(F)cc3F)c(=O)c(O)c2c1=O [Compound 6g, N-(2,4-Difluorobenzyl)-9-hydroxy-2-(3-methoxypropyl)-1,8-dioxo-1,8-dihydro-2H-pyrido [1,2-a]pyrazine-7-carboxamide] | – | – | ~2 | > 250000 | – | –
7 | COCCCCCCN1CCn2cc(C(=O)NCc3ccc(F)cc3F)c(=O)c(O)c2C1=O [Compound 7f, N-(2,4-Difluorobenzyl)-9-hydroxy-2-(6-methoxyhexyl)-1,8-dioxo-1,3,4,8-tetrahydro-2H-pyrido [1,2-a]pyrazine-7-carboxamide] | 228 to 232 | 0.96 | 4.6 ± 0.4 | > 250000 | – | –
8 | COCCCCCCn1ccn2cc(C(=O)NCc3ccc(F)cc3F)c(=O)c(O)c2c1=O [Compound 6f, N-(2,4-Difluorobenzyl)-9-hydroxy-2-(6-methoxyhexyl)-1,8-dioxo-1,8-dihydro-2H-pyrido [1,2-a]pyrazine-7-carboxamide] | – | – | 4.8 ± 0.2 | > 250000 | – | –
9 | CC(C)N1CCn2cc(C(=O)NCc3ccc(F)cc3F)c(=O)c(O)c2C1=O [Compound 7b, N-(2,4-Difluorobenzyl)-9-hydroxy-2-isopropyl-1,8-dioxo-1,3,4,8-tetrahydro-2H-pyrido [1,2-a]pyrazine-7-carboxamide] | – | 0.79 | 3 ± 0.1 | – | 167000 | –
10 | O=C(NCc1c(F)cc(F)cc1F)c1cn2c(c(O)c1=O)C(=O)N1[C@H]3CC[C@H](C3)O[C@@H]1C2 [BIC, Bictegravir, reference compound] | – | – | ~2 | – | – | –
11 | CC(C)n1ccn2cc(C(=O)NCc3ccc(F)cc3F)c(=O)c(O)c2c1=O [Compound 6b, N-(2,4-Difluorobenzyl)-9-hydroxy-2-isopropyl-1,8-dioxo-1,8-dihydro-2H-pyrido [1,2-a]pyrazine-7-carboxamide] | – | – | 3.8 ± 0.6 | > 250000 | – | –
12 | COCCn1ccn2cc(C(=O)NCc3ccc(F)cc3F)c(=O)c(O)c2c1=O [Compound 6h, N-(2,4-Difluorobenzyl)-9-hydroxy-2-(2-methoxyethyl)-1,8-dioxo-1,8-dihydro-2H-pyrido [1,2-a]pyrazine-7-carboxamide] | – | – | ~2 | > 250000 | – | 1.9 ± 0.4
